Laboratory results taken from patent US6972296B2, “Carboxylic acid derivatives that inhibit the binding of integrins to their receptors” (Encysive Pharmaceuticals Inc., priority 1999, dated 2005).
Blank lines part the entries; values can stand above or below the compound they belong to.

Target: T1, α4β1 integrin (Homo sapiens, UniProt P05556+P13612)
T1 construct: endogenous in cells; host or cells: Ramos cells
Experiment: Adhesion of calcein-labeled Ramos cells to CS1 (fibronectin) peptide conjugated ovalbumin
Format: cell-based
Settings: Ramos cell adhesion to CS1 conjugated ovalbumin
In short: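 Plates bearing CS1 fibronectin peptide coupled to ovalbumin (0.5 μg/ml coat, 3% BSA block) received calcein-labelled Ramos cells plus compound (100 μM stated) for 30 min at 37 °C. Buffer was TBS pH 7.5 with 1 mM Mg2+, Ca2+, Mn2+; bound cells quantified by fluorescence after lysis; […].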

[1] = Table 5, dose required to give 50% inhibition
[2] = Table 7, dose required to give 50% inhibition

T1 sequence (P13612 34-1032): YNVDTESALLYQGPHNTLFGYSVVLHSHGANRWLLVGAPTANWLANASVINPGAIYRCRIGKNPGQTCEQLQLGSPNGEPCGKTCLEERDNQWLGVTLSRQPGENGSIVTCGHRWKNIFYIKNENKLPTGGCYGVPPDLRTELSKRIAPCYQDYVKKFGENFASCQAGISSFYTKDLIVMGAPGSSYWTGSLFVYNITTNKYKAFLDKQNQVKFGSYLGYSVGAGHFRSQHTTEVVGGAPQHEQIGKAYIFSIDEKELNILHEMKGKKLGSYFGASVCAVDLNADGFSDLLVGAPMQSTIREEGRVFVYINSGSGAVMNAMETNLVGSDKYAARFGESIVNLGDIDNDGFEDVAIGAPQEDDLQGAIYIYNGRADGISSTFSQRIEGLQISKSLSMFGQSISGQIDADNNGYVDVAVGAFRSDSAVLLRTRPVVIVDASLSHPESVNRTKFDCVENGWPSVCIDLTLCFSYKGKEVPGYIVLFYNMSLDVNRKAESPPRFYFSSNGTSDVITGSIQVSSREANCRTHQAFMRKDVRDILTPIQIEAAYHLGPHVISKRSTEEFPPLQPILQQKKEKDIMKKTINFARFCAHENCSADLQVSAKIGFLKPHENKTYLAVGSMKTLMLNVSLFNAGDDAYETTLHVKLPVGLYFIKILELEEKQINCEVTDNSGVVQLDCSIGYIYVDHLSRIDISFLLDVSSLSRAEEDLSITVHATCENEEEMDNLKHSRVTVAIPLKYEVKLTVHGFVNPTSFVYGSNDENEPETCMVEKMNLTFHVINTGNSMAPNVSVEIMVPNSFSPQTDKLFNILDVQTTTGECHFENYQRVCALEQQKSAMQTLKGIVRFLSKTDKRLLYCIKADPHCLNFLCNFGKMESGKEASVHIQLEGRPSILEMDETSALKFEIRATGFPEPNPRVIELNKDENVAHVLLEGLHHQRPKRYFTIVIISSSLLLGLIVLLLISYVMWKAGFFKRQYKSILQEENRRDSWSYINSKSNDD
T1 sequence (P05556 21-798): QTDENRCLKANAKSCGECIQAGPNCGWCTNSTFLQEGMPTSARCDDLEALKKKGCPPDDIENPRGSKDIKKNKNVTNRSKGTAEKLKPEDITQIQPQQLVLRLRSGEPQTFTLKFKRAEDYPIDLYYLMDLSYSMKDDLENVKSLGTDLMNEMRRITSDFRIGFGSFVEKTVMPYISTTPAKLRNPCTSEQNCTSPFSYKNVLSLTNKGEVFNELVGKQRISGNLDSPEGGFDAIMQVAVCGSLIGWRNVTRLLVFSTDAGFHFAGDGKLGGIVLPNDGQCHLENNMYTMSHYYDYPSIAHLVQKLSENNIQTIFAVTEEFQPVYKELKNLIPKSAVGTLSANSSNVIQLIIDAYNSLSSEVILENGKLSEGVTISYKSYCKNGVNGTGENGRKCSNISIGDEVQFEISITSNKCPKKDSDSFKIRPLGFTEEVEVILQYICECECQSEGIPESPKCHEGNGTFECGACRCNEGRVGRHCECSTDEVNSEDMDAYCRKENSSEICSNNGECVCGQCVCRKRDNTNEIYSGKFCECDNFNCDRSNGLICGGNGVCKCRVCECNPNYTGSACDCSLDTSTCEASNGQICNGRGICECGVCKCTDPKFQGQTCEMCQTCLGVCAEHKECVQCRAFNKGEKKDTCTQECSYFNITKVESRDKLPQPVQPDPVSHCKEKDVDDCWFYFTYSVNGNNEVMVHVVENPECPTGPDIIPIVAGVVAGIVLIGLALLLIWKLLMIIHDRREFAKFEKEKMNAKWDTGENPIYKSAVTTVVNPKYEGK

IC50 [1]: 120 nM
SMILES: Cc1ccc([C@H](CC(=O)O)NC(=O)Nc2c(O)c3c(n(Cc4ccccc4Cl)c2=O)CCCCC3)cc1

IC50 (Table 3, 30 minutes at 37° C.): 4000 nM
SMILES: O=C(O)C[C@H](NC(=O)N1CCCCc2ccn(Cc3ccccc3)c(=O)c21)c1ccc2c(c1)OCO2 [(3S)-3-(1,3-benzodioxol-5-yl)-3-({[9-oxo-8-(phenylmethyl)-2,3,4,5,8,9-hexahydro-1H-pyrido[3,4-b]azepin-1-yl]carbonyl}amino)propanoic acid]

IC50 (Table 6, 30 minutes at 37° C.): 3 nM
SMILES: Cn1ccc2cc([C@H](CC(=O)O)NC(=O)Nc3c(O)ccn(Cc4ccccc4Cl)c3=O)ccc21

IC50 (Table 6, 30 minutes at 37° C.): 3 nM
SMILES: CCOc1ccc([C@H](CC(=O)O)NC(=O)Nc2c(O)c3c(n(Cc4ccccc4Cl)c2=O)CCC3)cc1OCC

IC50 (Table 4, 30 minutes at 37° C.): > 100000 nM
SMILES: O=C(Nc1cccn(Cc2cccs2)c1=O)NC(c1ccc2c(c1)OCO2)C(F)(F)C(=O)O (stereo not drawn) [3-(1,3-benzodioxol-5-yl)-2,2-difluoro-3-[({[2-oxo-1-(2-thiophenylmethyl)-1,2-dihydro-3-pyridinyl]amino}carbonyl)amino]propanoic acid]

IC50 [2]: 3 nM
SMILES: CCCOc1cccc([C@H](CC(=O)O)NC(=O)Nc2c(O)c3c(n(Cc4c(Cl)cccc4OCC)c2=O)CCC3)c1 [(3S)-3-[({[1-(2-chloro-6-ethoxybenzyl)-4-hydroxy-2-oxo-2,5,6,7-tetrahydro-1H-cyclopenta[b]pyridin-3-yl]amino}carbonyl)amino]-3-(3-propoxyphenyl)propanoic acid]

IC50 [2]: 20 nM
SMILES: Cc1ccccc1-c1cccc([C@H](CC(=O)O)NC(=O)Nc2c(O)c(C)cn(Cc3ccccc3Cl)c2=O)c1

IC50 (Table 4, 30 minutes at 37° C.): 6000 nM
SMILES: O=C(O)C[C@H](NC(=O)Nc1cccn(CC2CCCC2)c1=O)c1ccc2c(c1)OCO2 [(3S)-3-(1,3-benzodioxol-5-yl)-3-[({[1-(cyclopentylmethyl)-2-oxo-1,2-dihydro-3-pyridinyl]amino}carbonyl)amino]propanoic acid]

IC50 (Table 4, 30 minutes at 37° C.): 700 nM
SMILES: COc1cc(OC)cc([C@H](CC(=O)O)NC(=O)Nc2cccn(Cc3cccs3)c2=O)c1

IC50 [1]: 22 nM
SMILES: Cc1ccc([C@H](CC(=O)O)NC(=O)Nc2c(O)ccn(Cc3ccc(F)cc3)c2=O)cc1

IC50 (Table 6, 30 minutes at 37° C.): 150 nM
SMILES: O=C(O)C[C@H](NC(=O)Nc1c(O)ccn(Cc2ccccc2Cl)c1=O)c1ccccn1

IC50 [1]: 1500 nM
SMILES: Cc1ccc([C@H](CC(=O)O)NC(=O)Nc2cc(C(F)(F)F)cn(Cc3ccccc3)c2=O)cc1

IC50 (Table 6, 30 minutes at 37° C.): 3 nM
SMILES: Cc1cn(Cc2ccccc2Cl)c(=O)c(NC(=O)N[C@@H](CC(=O)O)c2ccc3c(ccn3C)c2)c1O

IC50 (Table 4, 30 minutes at 37° C.): 500 nM
SMILES: O=C(O)C[C@H](NC(=O)Nc1ccc(=O)n(Cc2ccccc2)c1)c1ccc2c(c1)OCO2

IC50 (Table 6, 30 minutes at 37° C.): 2 nM
SMILES: CCOc1cccc([C@H](CC(=O)O)NC(=O)Nc2c(O)c(C)cn(Cc3c(Cl)cccc3OCC)c2=O)c1 [(3S)-3-[({[1-(2-chloro-6-ethoxybenzyl)-4-hydroxy-5-methyl-2-oxo-1,2-dihydropyridin-3-yl]amino}carbonyl)amino]-3-(3-ethoxyphenyl)propanoic acid]

IC50 [2]: 30 nM
SMILES: Cc1cn(Cc2ccccc2Cl)c(=O)c(NC(=O)N[C@@H](CC(=O)O)c2cccc3ccn(C)c23)c1O

IC50 (Table 3, 30 minutes at 37° C.): 10 nM
SMILES: CCCc1ccn(Cc2ccccc2)c(=O)c1NC(=O)N[C@@H](CC(=O)O)c1ccc2c(c1)OCO2 [(3S)-3-(1,3-benzodioxol-5-yl)-3-[({[2-oxo-1-(phenylmethyl)-4-propyl-1,2-dihydro-3-pyridinyl]amino}carbonyl)amino]propanoic acid]

IC50 [2]: 20 nM
SMILES: CCC(CC)Oc1cccc([C@H](CC(=O)O)NC(=O)Nc2c(O)c3c(n(Cc4ccccc4Cl)c2=O)CCC3)c1

IC50 [2]: 4 nM
SMILES: CCOc1cccc([C@H](CC(=O)O)NC(=O)Nc2c(O)c(C)c(C)n(Cc3c(Cl)cccc3OCC)c2=O)c1

IC50 [2]: 3 nM
SMILES: CCOc1cccc(Cl)c1Cn1cc(C)c(O)c(NC(=O)N[C@@H](CC(=O)O)c2ccc3ccn(C)c3c2)c1=O [(3S)-3-[({[1-(2-chloro-6-ethoxybenzyl)-4-hydroxy-5-methyl-2-oxo-1,2-dihydropyridin-3-yl]amino}carbonyl)amino]-3-(1-methyl-1H-indol-6-yl)propanoic acid]

IC50 [2]: 40 nM
SMILES: COc1cccc(OC)c1-c1ccc([C@H](CC(=O)O)NC(=O)Nc2c(O)c(C)cn(Cc3ccccc3Cl)c2=O)cc1

IC50 [2]: 20 nM
SMILES: CCOc1cc([C@H](CC(=O)O)NC(=O)Nc2c(O)c3c(n(Cc4ccccc4Cl)c2=O)CCC3)ccc1-c1ccccc1

SMILES: CCCCOc1cccc([C@H](CC(=O)O)NC(=O)Nc2c(O)ccn(Cc3ccccc3Cl)c2=O)c1 [(3S)-3-(3-butoxyphenyl)-3-[({[1-(2-chlorobenzyl)-4-hydroxy-2-oxo-1,2-dihydropyridin-3-yl]amino}carbonyl)amino]propanoic acid]
IC50 [1]: 5 nM

IC50 (Table 4, 30 minutes at 37° C.): 8000 nM
SMILES: Cc1ccc([C@H](CC(=O)O)NC(=O)Nc2cc(Cl)cc(Cc3ccccc3)c2O)cc1 [(3S)-3-[({[5-chloro-2-hydroxy-3-(phenylmethyl)phenyl]amino}carbonyl)amino]-3-(4-methylphenyl)propanoic acid]

IC50 (Table 4, 30 minutes at 37° C.): 200 nM
SMILES: Cc1ccc([C@H](CC(=O)O)NC(=O)Nc2cccn(Cc3c(Cl)cccc3Cl)c2=O)cc1

IC50 [1]: 10 nM
SMILES: Cc1ccc([C@H](CC(=O)O)NC(=O)Nc2c(NC(=O)C(C)(C)C)ccn(Cc3ccccc3Cl)c2=O)cc1 [(3S)-3-{[({1-(2-chlorobenzyl)-4-[(2,2-dimethylpropanoyl)amino]-2-oxo-1,2-dihydropyridin-3-yl}amino)carbonyl]amino}-3-(4-methylphenyl)propanoic acid]

IC50 [2]: 30 nM
SMILES: O=C(O)CC(NC(=O)Nc1c(O)c2c(n(Cc3ccccc3Cl)c1=O)CCC2)c1ccc(-c2ccccc2)cc1 (stereo not drawn)

IC50 (Table 3, 30 minutes at 37° C.): 10 nM
SMILES: Cc1ccc([C@H](CC(=O)O)NC(=O)Nc2c(CC(C)C)nc(C)n(Cc3ccccc3)c2=O)cc1 [(3S)-3-[({[2-methyl-4-(2-methylpropyl)-6-oxo-1-(phenylmethyl)-1,6-dihydro-5-pyrimidinyl]amino}carbonyl)amino]-3-(4-methylphenyl)propanoic acid]

IC50 [2]: 2 nM
SMILES: CCOc1cccc(Cl)c1Cn1c2c(c(O)c(NC(=O)N[C@@H](CC(=O)O)c3ccc4cc(OC)ccc4c3)c1=O)CCC2

IC50 [2]: 20 nM
SMILES: CCCc1ccc([C@H](CC(=O)O)NC(=O)Nc2c(O)c3c(n(Cc4c(C)cccc4Cl)c2=O)CCC3)cc1

IC50 (Table 6, 30 minutes at 37° C.): 15 nM
SMILES: O=C(O)C[C@H](NC(=O)Nc1c(O)ccn(Cc2ccccc2Cl)c1=O)c1cccc(OC(F)(F)C(F)F)c1

IC50 (Table 6, 30 minutes at 37° C.): 14 nM
SMILES: CCOc1cccc([C@H](CC(=O)O)NC(=O)Nc2c(O)c(C3CC3)cn(Cc3ccccc3Cl)c2=O)c1

IC50 [1]: 7 nM
SMILES: Cc1ccc([C@H](CC(=O)O)NC(=O)Nc2c(O)ccn(Cc3c(Cl)cccc3C#N)c2=O)cc1 [(3S)-3-[({[1-(2-chloro-6-cyanobenzyl)-4-hydroxy-2-oxo-1,2-dihydropyridin-3-yl]amino}carbonyl)amino]-3-(4-methylphenyl)propanoic acid]

IC50 (Table 4, 30 minutes at 37° C.): 40 nM
SMILES: COc1ccc([C@H](CC(=O)O)NC(=O)Nc2cccn(Cc3ccccc3Cl)c2=O)cc1C

IC50 (Table 4, 30 minutes at 37° C.): 1300 nM
SMILES: Cc1ccc([C@H](CC(=O)O)NC(=O)Nc2cccn(Cc3ccc(F)cc3F)c2=O)cc1

IC50 (Table 3, 30 minutes at 37° C.): 20 nM
SMILES: Cc1ccc([C@H](CC(=O)O)NC(=O)Nc2c(Nc3ccccc3)ccn(Cc3ccccc3Cl)c2=O)cc1

IC50 [1]: 4 nM
SMILES: Cc1ccc([C@H](CC(=O)O)NC(=O)Nc2c(Nc3ccc(C(=O)O)cc3)ccn(Cc3ccccc3Cl)c2=O)cc1 [4-{[3-[({[(1S)-2-carboxy-1-(4-methylphenyl)ethyl]amino}carbonyl)amino]-1-(2-chlorobenzyl)-2-oxo-1,2-dihydropyridin-4-yl]amino}benzoic acid]

IC50 (Table 4, 30 minutes at 37° C.): 35 nM
SMILES: COc1ccc([C@H](CC(=O)O)NC(=O)Nc2c(O)ccn(Cc3ccccc3Cl)c2=O)c(C)c1C

IC50 [2]: 10 nM
SMILES: Cc1cccc(Cl)c1Cn1c2c(c(O)c(NC(=O)N[C@@H](CC(=O)O)c3cccc(OCC4CC4)c3)c1=O)CCC2

IC50 [1]: 60 nM
SMILES: Cc1ccc([C@H](CC(=O)O)NC(=O)Nc2c(O)ccn(Cc3ccc(Cl)cc3Cl)c2=O)cc1

IC50 (Table 4, 30 minutes at 37° C.): 300 nM
SMILES: Cc1ccc([C@H](CC(=O)O)NC(=O)Nc2cccn(Cc3c(F)cccc3F)c2=O)cc1

IC50 (Table 6, 30 minutes at 37° C.): 45 nM
SMILES: Cc1ccc([C@H](CC(=O)O)NC(=O)Nc2c(O)c(C)cn(Cc3c(C)cccc3Cl)c2=O)cc1C

IC50 [1]: 2 nM
SMILES: CCOc1cc([C@H](CC(=O)O)NC(=O)Nc2c(O)ccn(Cc3ccccc3Cl)c2=O)ccc1OC [(3S)-3-[({[1-(2-chlorobenzyl)-4-hydroxy-2-oxo-1,2-dihydropyridin-3-yl]amino}carbonyl)amino]-3-(3-ethoxy-4-methoxyphenyl)propanoic acid]

IC50 [2]: 17 nM
SMILES: O=C(O)C[C@H](NC(=O)Nc1c(O)c2c(n(Cc3ccccc3Cl)c1=O)CCC2)c1cccc(OC2CCC2)c1

IC50 [1]: 15 nM
SMILES: Cc1ccc([C@H](CC(=O)O)NC(=O)Nc2c(O)ccn(Cc3ccccc3Br)c2=O)cc1

IC50 (Table 6, 30 minutes at 37° C.): 4 nM
SMILES: CCOc1ccc([C@H](CC(=O)O)NC(=O)Nc2c(O)c3ccccc3n(Cc3ccccc3Cl)c2=O)cc1OCC

IC50 [2]: 23 nM
SMILES: CCn1c2ccccc2c2cc([C@H](CC(=O)O)NC(=O)Nc3c(O)c(C)cn(Cc4ccccc4Cl)c3=O)ccc21

IC50 [1]: 10 nM
SMILES: CCc1cn(Cc2ccccc2Cl)c(=O)c(NC(=O)N[C@@H](CC(=O)O)c2ccc(C)cc2)c1O [(3S)-3-[({[1-(2-chlorobenzyl)-5-ethyl-4-hydroxy-2-oxo-1,2-dihydropyridin-3-yl]amino}carbonyl)amino]-3-(4-methylphenyl)propanoic acid]

IC50 (Table 3, 30 minutes at 37° C.): 10 nM
SMILES: Cc1ccc([C@H](CC(=O)O)NC(=O)Nc2c(N)ccn(Cc3ccccc3Cl)c2=O)cc1 [(3S)-3-{[({4-amino-1-[(2-chlorophenyl)methyl]-2-oxo-1,2-dihydro-3-pyridinyl}amino)carbonyl]amino}-3-(4-methylphenyl)propanoic acid]

IC50 [2]: 40 nM
SMILES: Cc1ccc(-c2ccc([C@H](CC(=O)O)NC(=O)Nc3c(O)ccn(Cc4ccccc4Cl)c3=O)cc2)cc1

IC50 [1]: 4000 nM
SMILES: Cc1ccc([C@H](CC(=O)O)NC(=O)Nc2c(O)c(C)cn([C@H](C)c3ccccc3)c2=O)cc1
